Measured values published in patent US20090098110A1, “INJECTABLE FORMS OF SOLID-FORMING CROSSLINKED BIOELASTIC BIOPOLYMERS FOR LOCAL DRUG DELIVERY” (Duke University, priority 2007, published 2009).
Structures can show the parent of a compound that is named as a salt.

How the values were obtained:
[1] = reported value, organism not stated; cited from earlier work
[2] = Antibiotic release from the crosslinked bioelastomer constructs into PBS at 37° C, UV/Vis of supernatant; type: physicochemical; details: ELP 150 mg/ml
[3] = test system: Bacillus subtilis (ATCC 6633); experiment: Agar disk bioassay (zone of inhibition) of antibiotics released from the crosslinked bioelastomer constructs; type: cell-based; details: for active compound concentration corresponding to zone of inhibition: day 1 supernatant; for active compound concentration corresponding to zone of inhibition / active drug concentration corresponding to zone of inhibition: vs serial dilutions
Description: To determine if the eluted antibiotics remained active, bioassays were performed in triplicate, for a subset of samples, using Bacillus subtilis (ATCC 6633) for both vancomycin and cefazolin. Vancomycin supernatants from days 1, 7, 14, 21, and 28, as well as a sample of the final construct (following resolubilization) were tested against vancomycin serial dilutions of 5 mg/ml, 1 mg/ml, 0.5 mg/ml, 0.1 mg/ml, and 0.05 mg/ml. […] Bacterial suspensions were prepared in tryptic soy broth following the recommendations set forth by the manufacturer for Bacillus subtilis (Lyfo Disk, MicroBiologics, St. Cloud, Minn.). After 30 minutes of incubation at 37° C. the suspensions were swabbed onto petri dishes containing Mueller-Hinton agar. Twenty microliters of each supernatant were pipetted onto 6 mm filter paper disks applied to the surface of the agar. The plates were incubated for 18 hours at 37° C. After incubation, zones of inhibition were measured twice in two randomly chosen directions. Supernatants from ELP control samples were tested in this same manner.

time in which the majority of cefazolin release took place ([2]; cefazolin-loaded ELP constructs) | SMILES | minimal inhibitory concentration [1] [µg/mL] | active compound concentration corresponding to zone of inhibition ([3]; cefazolin released from crosslinked construct) [mg/mL] | active drug concentration corresponding to zone of inhibition ([3]; cefazolin released from crosslinked construct, day 3 supernatant) | zone of bacterial growth inhibition, biological activity of released cefazolin ([3]; supernatants of days 1-4 and final homogenized construct, all samples tested) | time period over which the ELP constructs release antibiotic ([2]; cefazolin-loaded ELP constructs, PBS 37° C, supernatant replaced days 1-10) [days] | time period over which the crosslinked ELP constructs release vancomycin ([2]; vancomycin-loaded crosslinked ELP constructs, PBS 37° C, supernatant replaced) [days] | zone of bacterial growth inhibition, biological activity of released vancomycin ([3]; all supernatants tested (days 1, 7, 14, 21, 28) and homogenized final sample) | active compound concentration corresponding to zone of inhibition ([3]; vancomycin released from crosslinked construct) [mg/mL] | active drug concentration corresponding to zone of inhibition ([3]; vancomycin released from crosslinked construct, day 7 supernatant)
initial two or three days | Cc1nnc(SCC2=C(C(=O)[O-])N3C(=O)[C@@H](NC(=O)Cn4cnnn4)[C@H]3SC2)s1.[Na+] [cefazolin, cefazolin sodium salt] | 0.25 to 1 | ~2 | less than 0.5 mg/ml | biologically active | – | – | – | – | –
– | CN[C@H](CC(C)C)C(=O)N[C@H]1C(=O)N[C@@H](CC(N)=O)C(=O)N[C@H]2C(=O)N[C@H]3C(=O)N[C@H](C(=O)N[C@H](C(=O)O)c4cc(O)cc(O)c4-c4cc3ccc4O)[C@H](O)c3ccc(c(Cl)c3)Oc3cc2cc(c3O[C@@H]2O[C@H](CO)[C@@H](O)[C@H](O)[C@H]2O[C@H]2C[C@](C)(N)[C@H](O)[C@H](C)O2)Oc2ccc(cc2Cl)[C@H]1O [vancomycin, vancomycin hydrochloride] | 1.5 to 3 | – | – | – | ≥ 10 | ≥ 28 | retained biological activity | ~1 | less than 0.1 mg/ml
